Measurements: patent US7592436B2, “Gene encoding a protein having aurone synthesis activity” (International Flower Developments Proprietary Limited, priority 1998, dated 2009)

How the values were obtained:
aurone synthase = assay: Measurement of aurone synthase activity (HPLC); format: biochemical, snapdragon; conditions: for Conversion of substrate to aureusidin by purified aurone synthase: product confirmed by HPLC analysis
Protocol: The reaction was started by adding 5 μl of THC, having an absorbance of 462 at 366 nm in ethanol, to 50 μl of 1 M sodium acetate buffer (pH 5.0) and 350 μl of crude enzyme solution diluted with water. After allowing to react for 1 hour at 30° C., and adding 100 μl of an aqueous solution of 90% (v/v) acetonitrile containing 1% (v/v) TFA to stop the reaction, activity was measured by HPLC. The crude enzyme solution in each purification step described later in Example 4 was measured.
The YMC J'Sphere ODS M80 column (4.6×150 mm) was used and the flow rate was set at 0.7 ml/min. Using a 0.1% aqueous solution of TFA as solvent A, and a 90% aqueous solution of acetonitrile containing 0.1% TFA as solvent B, a sample was injected into the column, after which the ratio of A:B was held at 7:3 for first 3 minutes, and then changed to 6:4 by a linear concentration gradient for next 10 minutes. This concentration was maintained for 5 minutes. After changing the ratio of A:B to 7:3 for next one minute, this concentration was maintained for 5 minutes.

tyrosinase = assay: Aurone synthesis activity of tyrosinase; format: biochemical, Neurospora; conditions: HPLC
Protocol: After mixing tyrosinase (Sigma catalog no. T7755; 0.04 mg/ml, 10 μl), 0.1 M sodium phosphate buffer (pH 6.5, 335 μl), 9% CHAPS (20 μl) and milli-Q water (20 μl), the mixture was incubated for 10 minutes at 30° C., followed by the addition of tetrahydroxychalcone (THC, 4.3 mM in ethanol, 15 μl), stirring immediately and reacting for 30 minutes at 30° C. After reaction, 100 μl of reaction stopping solution (10% trifluoroacetate solution containing 90% acetonitrile) was added to the reaction mixture to stop the reaction, followed by HPLC analysis. Analysis was performed in the same manner as described in Example 3. Water was used instead of tyrosinase as a control.
In addition, the reaction was carried out under the same conditions using pentahydroxychalcone (PHC) instead of THC as a substrate, and using 0.116 M sodium citrate phosphate buffer (pH 5.4) as a buffer. Similarly, water was used instead of tyrosinase as a control.

Structure (SMILES)	Conversion of substrate to aureusidin by purified aurone synthase (aurone synthase)	Reaction product formed from substrate by tyrosinase (tyrosinase; 0.1 M sodium phosphate buffer pH 6.5, 30 minutes at 30° C.)	Change of enzyme activity on addition (aurone synthase; hydrogen peroxide added)	Reaction product formed from substrate by tyrosinase (tyrosinase; 0.116 M sodium citrate phosphate buffer pH 5.4, 30 minutes at 30° C.)
O=C(/C=C/c1ccc(O)cc1)c1c(O)cc(O)cc1O [THC, tetrahydroxychalcone]	converts both THC and pentahydroxychalcone to aureusidin	reaction product aureusidin		
OO [hydrogen peroxide]			activity increased somewhat	
O=C(/C=C/c1ccc(O)c(O)c1)c1c(O)cc(O)cc1O [pentahydroxychalcone]	converts both THC and pentahydroxychalcone to aureusidin			reaction product aureusidin
